The IC50 is the midpoint of a concentration-inhibition curve. For orientation: inhibition means how much of the control response was suppressed.

Experimental findings from ChEMBL document CHEMBL3091407, “Synthesis of Novel 3,5-Disubstituted-2-oxindole Derivatives As Antitumor Agents against Human Nonsmall Cell Lung Cancer” (ACS Med Chem Lett, 2013) are described below.

Molecules are shown by their SMILES. Active and inactive are the calls of the source. No cut-off for these calls is given here.

Test [1] concerns MDA-MB-231. Briefly: Selectivity for human HCC827 cells over human MDA-MB-231 cells. Type of test: functional.
Test [2] has as its system A549. Briefly: Cytotoxicity against human A549 cells after 24 to 72 hrs by haemocytometry. In kind it is functional, cell-based.
For test [3], the system named is A549. Put plainly: Inhibition of Akt phosphorylation at Thr308 site in human A549 cells at IC50 after 72 hrs by ELISA. Type of test: cell-based. In general terms: ELISA stands for enzyme-linked immunosorbent assay.
For test [4], the system named is A549. Put plainly: Induction of apoptosis in human A549 cells assessed as cellular rupture into debris at IC50 by fluorescence microscopy. Type of test: functional, cell-based.
Test [5] has as its system A549. Put plainly: Cytotoxicity against human A549 cells at 0.01 to 100 uM by haemocytometry. In kind it is functional, cell-based. As to conditions: TDE = time-dependent effect.
Test [6] deals with A549. Put plainly: Induction of apoptosis in human A549 cells assessed as nuclear fragmentation at IC50 by fluorescence microscopy. Type of test: functional, cell-based.
In test [7] the test system is A549. Put plainly: Cell cycle arrest in human A549 cells assessed as decrease in G1 cells at IC50 after 24 hrs followed by compound washout by propidium iodide staining-based FACS analysis. Type of test: functional. Also on record: scale not given: the % may be the effect or the level left. Background: In flow cytometry, cells or beads pass a laser one at a time.
The test system of test [8] is A549. Briefly: Cell cycle arrest in human A549 cells assessed as decrease in S cells at IC50 after 24 hrs followed by compound washout by propidium iodide staining-based FACS analysis. In kind it is functional. Further details: scale not given: the % may be the effect or the level left.
The test system of test [9] is A549. Briefly: Induction of apoptosis in human A549 cells assessed as cell shrinkage at IC50 by fluorescence microscopy. In kind it is functional, cell-based.
Test [10] deals with A549. Briefly: Inhibition of Akt phosphorylation at Ser473 site in human A549 cells at IC50 after 72 hrs by ELISA. Type of test: cell-based.
Test [11] has as its system A549. Put plainly: Cell cycle arrest in human A549 cells assessed as decrease in G2 cells at IC50 after 24 hrs followed by compound washout by propidium iodide staining-based FACS analysis. In kind it is functional. Also on record: scale not given: the % may be the effect or the level left.
Test [12] concerns A549. Briefly: Induction of apoptosis in human A549 cells assessed as apoptotic index at IC50 by fluorescence microscopy relative to control. In kind it is functional.
Test [13] relates to A549. Put plainly: Ratio of perifosine IC50 to compound IC50 for human A549 cells. Type of test: functional.
The test system of test [14] is A549. Put plainly: Ratio of sunitinib IC50 to compound IC50 for human A549 cells. Type of test: functional.
Test [15] deals with A549. Briefly: Inhibition of Akt phosphorylation in human A549 cells assessed as inhibition of FoxO3a phosphorylation at Thr32 at 10 uM after 3 hrs followed by 10 mins incubation in 10% FBS by Western blotting analysis. In kind it is cell-based. On the technique in general: Immunoblotting shows a protein as a band on a membrane.
For test [16], the system named is MDA-MB-231. Briefly: Cytotoxicity against human MDA-MB-231 cells at 1 to 10 uM after 72 hrs by haemocytometry. Type of test: functional, cell-based.
Test [17] addresses Receptor tyrosine-protein kinase erbB-2 (Homo sapiens) (UniProt P04626). Briefly: Inhibition of Her2 phosphorylation at Tyr1221/1222 in human A549 cells at 10 uM after 3 hrs followed by 10 mins incubation in 10% FBS by Western blotting analysis. In kind it is cell-based.
For test [18], the target named is Epidermal growth factor receptor (Homo sapiens) (UniProt P00533). Put plainly: Inhibition of EGFR phosphorylation at […] in human A549 cells at 10 uM after 3 hrs followed by 10 mins incubation in 10% FBS by Western blotting analysis. Type of test: cell-based.
Chain of Epidermal growth factor receptor (Homo sapiens) (P00533 whole entry): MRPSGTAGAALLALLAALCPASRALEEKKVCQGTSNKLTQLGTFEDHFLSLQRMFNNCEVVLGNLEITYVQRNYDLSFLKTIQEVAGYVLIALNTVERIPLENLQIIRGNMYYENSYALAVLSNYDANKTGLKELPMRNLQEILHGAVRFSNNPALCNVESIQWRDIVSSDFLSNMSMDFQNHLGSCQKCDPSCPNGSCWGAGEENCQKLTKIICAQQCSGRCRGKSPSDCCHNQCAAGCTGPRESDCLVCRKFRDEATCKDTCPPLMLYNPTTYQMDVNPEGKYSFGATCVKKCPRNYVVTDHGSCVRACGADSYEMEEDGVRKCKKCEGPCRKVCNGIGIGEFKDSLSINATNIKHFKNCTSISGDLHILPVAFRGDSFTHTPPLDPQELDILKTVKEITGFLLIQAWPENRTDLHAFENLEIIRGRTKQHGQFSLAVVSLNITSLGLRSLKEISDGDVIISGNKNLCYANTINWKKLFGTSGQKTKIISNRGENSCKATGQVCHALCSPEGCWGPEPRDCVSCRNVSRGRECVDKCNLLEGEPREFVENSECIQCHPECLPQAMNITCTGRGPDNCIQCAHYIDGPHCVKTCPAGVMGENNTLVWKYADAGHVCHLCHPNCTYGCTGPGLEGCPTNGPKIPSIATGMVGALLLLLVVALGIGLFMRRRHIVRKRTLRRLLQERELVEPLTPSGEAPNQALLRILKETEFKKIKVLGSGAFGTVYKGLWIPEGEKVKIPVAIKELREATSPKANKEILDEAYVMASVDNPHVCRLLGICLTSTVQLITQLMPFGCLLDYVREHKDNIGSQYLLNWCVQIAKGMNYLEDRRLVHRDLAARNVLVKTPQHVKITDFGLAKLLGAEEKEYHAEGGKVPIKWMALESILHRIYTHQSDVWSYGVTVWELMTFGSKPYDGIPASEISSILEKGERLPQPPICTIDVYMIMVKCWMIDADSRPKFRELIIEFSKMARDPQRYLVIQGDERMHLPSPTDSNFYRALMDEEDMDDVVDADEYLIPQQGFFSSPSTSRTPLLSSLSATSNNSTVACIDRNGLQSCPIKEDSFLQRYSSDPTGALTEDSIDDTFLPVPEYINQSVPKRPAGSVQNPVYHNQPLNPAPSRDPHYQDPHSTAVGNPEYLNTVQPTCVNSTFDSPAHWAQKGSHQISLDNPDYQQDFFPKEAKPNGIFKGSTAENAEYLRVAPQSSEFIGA
Test [19] concerns A549. Briefly: Inhibition of Akt phosphorylation in human A549 cells assessed as inhibition of FoxO1 phosphorylation at Thr24 at 10 uM after 3 hrs followed by 10 mins incubation in 10% FBS by Western blotting analysis. In kind it is cell-based.
The test system of test [20] is A549. Put plainly: Inhibition of Akt phosphorylation at Thr308 site in human A549 cells at 10 uM after 3 hrs followed by 10 mins incubation in 10% FBS by Western blotting analysis. In kind it is cell-based.
Test [21] can be described thus: Cytotoxicity against human HCC827 cells after 24 to 72 hrs by haemocytometry. Type of test: functional, cell-based.

Chain of Receptor tyrosine-protein kinase erbB-2 (Homo sapiens) (P04626 whole entry): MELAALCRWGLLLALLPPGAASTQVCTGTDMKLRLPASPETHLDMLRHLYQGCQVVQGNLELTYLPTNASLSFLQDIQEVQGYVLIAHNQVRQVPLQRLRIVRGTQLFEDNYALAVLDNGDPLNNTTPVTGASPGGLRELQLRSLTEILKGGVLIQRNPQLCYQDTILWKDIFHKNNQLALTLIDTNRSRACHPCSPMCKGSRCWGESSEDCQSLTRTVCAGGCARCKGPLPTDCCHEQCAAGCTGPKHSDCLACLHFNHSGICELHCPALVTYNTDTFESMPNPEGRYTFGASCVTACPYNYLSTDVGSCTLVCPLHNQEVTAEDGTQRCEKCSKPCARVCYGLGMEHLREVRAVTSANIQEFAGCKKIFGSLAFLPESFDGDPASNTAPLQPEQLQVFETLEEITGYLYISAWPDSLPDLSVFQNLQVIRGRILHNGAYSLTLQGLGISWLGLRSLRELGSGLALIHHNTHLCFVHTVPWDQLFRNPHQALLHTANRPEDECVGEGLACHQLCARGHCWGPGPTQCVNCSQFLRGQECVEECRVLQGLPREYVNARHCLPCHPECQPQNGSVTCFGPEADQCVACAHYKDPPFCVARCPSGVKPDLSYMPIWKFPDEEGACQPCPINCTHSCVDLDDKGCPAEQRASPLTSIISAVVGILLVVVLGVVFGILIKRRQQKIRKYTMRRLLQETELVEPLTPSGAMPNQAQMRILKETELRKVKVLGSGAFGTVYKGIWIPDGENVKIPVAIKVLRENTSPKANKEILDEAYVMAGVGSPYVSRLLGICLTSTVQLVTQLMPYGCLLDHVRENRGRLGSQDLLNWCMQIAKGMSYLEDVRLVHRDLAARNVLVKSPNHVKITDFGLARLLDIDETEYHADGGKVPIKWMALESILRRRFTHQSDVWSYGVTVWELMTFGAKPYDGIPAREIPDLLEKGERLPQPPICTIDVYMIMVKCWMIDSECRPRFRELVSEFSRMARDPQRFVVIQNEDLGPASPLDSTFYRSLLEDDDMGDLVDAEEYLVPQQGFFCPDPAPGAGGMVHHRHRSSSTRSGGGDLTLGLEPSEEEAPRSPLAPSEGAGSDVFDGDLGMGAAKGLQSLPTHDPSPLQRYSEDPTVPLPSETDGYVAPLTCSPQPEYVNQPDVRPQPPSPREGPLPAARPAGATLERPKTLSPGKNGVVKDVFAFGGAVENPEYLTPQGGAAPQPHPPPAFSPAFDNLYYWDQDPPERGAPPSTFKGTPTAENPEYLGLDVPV

As for `COc1cc2ncnc(Nc3ccc(F)c(Cl)c3)c2cc1OCCCN1CCOCC1` [GEFITINIB], in test [1], the Selectivity ratio stood at 1700.

Take `COc1cc2c(cc1OC)CN(CC(=O)Nc1ccc3c(c1)CC(=O)N3)CC2`: the Activity entry in test [2] was “Dose-dependent effect”; in [5], “tde”; in test [7] it was 19.24%; in test [8], -4.99%; in test [11], -14.25%; in test [12] it was 12%. 16200 nM corresponded to half-maximal inhibition in [2] (IC50). The inhibition in test [3] and in [10] was 20% in each case. Also, the outcome in test [4], in [6] and in [9] was Active.

`COc1cc2c(cc1OC)CN(CC(=O)Nc1ccc3c(c1)/C(=C\c1ccccn1)C(=O)N3)CC2`: the Activity result was “Dose-dependent effect” in test [2]; “tde” in [5]; 1.06% in test [7]; -2.75% in [8]; 1.69% in test [11]. The IC50 in test [2] is 20000 nM. Further, the inhibition in test [3] and in test [10] was 20% each time. In addition, the outcome in test [4], in test [6] and in [9] was Active.

As for `COc1cc2c(cc1OC)CN(CC(=O)Nc1ccc3c(c1)/C(=C/c1cnc[nH]1)C(=O)N3)CC2`, the “Ratio IC50” value worked out at 2 in test [13] and 2.5 in test [14]. The Activity result in test [2] is “Dose-dependent effect”; in [5], “tde”; in test [7], -0.1%; in [8], -0.51%; in test [11], -0.61%. In test [2], this compound showed an IC50 of 2190 nM. The inhibition in test [3] and in test [10] was 20% in each case. Further, the outcome in test [4], in test [6] and in [9] was Active.

Take `CCCCCCCCCCCCCCCCCCOP(=O)([O-])OC1CC[N+](C)(C)CC1` [PERIFOSINE]: the Activity result was “Dose-dependent effect” in [2]; “tde” in [5]; 18.56% in [7]; -4.05% in [8]; -14.51% in test [11]; 32% in [12]. Also, in [2], the IC50 is 4170 nM.

On to `COc1cc2c(cc1OC)CN(CC(=O)Nc1ccc3c(c1)/C(=C\c1nccn1C)C(=O)N3)CC2`, for which the “Ratio IC50” value worked out at 2 in test [13] and 2.5 in test [14]. The Activity result in test [2] is “Dose-dependent effect”; in test [5] it was “tde”; in test [7], -0.85%; in test [8], 1.33%; in test [11] it was -0.48%. Also, half-maximal inhibition in test [2] (IC50) required 2750 nM. Moreover, the inhibition in test [3] and in test [10] was 20% throughout. For the same compound, the outcome in test [4], in test [6] and in test [9] was Active. Moreover, the inhibition result in [15], in test [19] and in [20] was “Active” throughout. The outcome in test [16] was inactive. Moreover, the inhibition entry in [17] and in [18] was “inactive” throughout.

As for `COc1cc2c(cc1OC)CN(CC(=O)Nc1ccc3c(c1)/C(=C/c1cccs1)C(=O)N3)CC2`, the “Ratio IC50” value worked out at 2 in test [13] and 2.5 in test [14]. The Activity result in [2] was “Dose-dependent effect”; in test [5], “tde”; in test [7] it was 21.04%; in test [8], -10.23%; in test [11], -11.2%; in test [12], 24%. For the same compound, the results for the IC50 in test [2] and in test [21] were 660 nM and 45 nM, respectively. Moreover, the inhibition in test [3] and in test [10] was 20% each time. The outcome in [4], in test [6] and in test [9] was Active. The inhibition entry in [15], in [19] and in [20] was “Active” throughout. In test [16], the outcome was inactive. Also, the inhibition entry in [17] and in [18] was “inactive” each time.
